The values that follow come from patent US5071835A, “Ribonucleotide reductase inhibitors” (Bio-Mega Inc., priority 1989, dated 1991).

The target of this assay is T1, human ribonucleotide reductase (hRR) (Homo sapiens, UniProt P23921).
T1 construct: Preparation of cell extract containing human ribonucleotide reductase (hRR); endogenous in cells; host or cells: HeLa cells (ATCC CCL 2.2); extract cleared with streptomycin sulphate, 50% ammonium sulphate cut, diafiltered
T1 sequence (P23921 1-792): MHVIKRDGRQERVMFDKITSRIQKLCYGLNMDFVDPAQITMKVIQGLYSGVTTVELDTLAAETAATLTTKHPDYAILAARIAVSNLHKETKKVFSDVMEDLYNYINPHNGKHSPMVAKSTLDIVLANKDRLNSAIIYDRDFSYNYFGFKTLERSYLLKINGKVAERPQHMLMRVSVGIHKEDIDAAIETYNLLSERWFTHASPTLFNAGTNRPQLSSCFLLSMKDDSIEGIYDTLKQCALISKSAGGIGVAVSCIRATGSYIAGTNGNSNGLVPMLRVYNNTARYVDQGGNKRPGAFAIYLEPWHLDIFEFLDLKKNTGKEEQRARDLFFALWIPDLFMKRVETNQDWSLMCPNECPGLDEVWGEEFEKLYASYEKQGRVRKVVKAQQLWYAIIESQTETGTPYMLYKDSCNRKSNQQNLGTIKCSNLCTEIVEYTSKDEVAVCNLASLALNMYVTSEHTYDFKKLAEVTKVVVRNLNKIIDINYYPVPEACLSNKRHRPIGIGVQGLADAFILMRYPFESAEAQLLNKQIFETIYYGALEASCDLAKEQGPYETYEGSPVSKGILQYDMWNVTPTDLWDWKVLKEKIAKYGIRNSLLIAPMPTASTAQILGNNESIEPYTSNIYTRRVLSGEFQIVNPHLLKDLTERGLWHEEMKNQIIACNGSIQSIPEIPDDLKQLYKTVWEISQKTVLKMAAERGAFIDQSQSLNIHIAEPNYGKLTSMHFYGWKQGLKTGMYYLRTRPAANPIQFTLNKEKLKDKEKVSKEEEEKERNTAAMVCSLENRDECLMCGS
The experiment in a line: Inhibition of Human Ribonucleotide Reductase Assay. It counts as biochemical. The protocol:
Inhibition of Human Ribonucleotide Reductase Assay
(a) Cell line: Hela cells (ATCC CCL 2.2), human epitheloid carcinoma, cervix.
(b) Cell culture: Cells were incubated in a medium consisting of Iscove's Modified Dulbecco Medium, pH 7.2-7.4 (Gibco Canada Inc., Burlington, ON, Canada) supplemented with 10% by volume of fetal calf serum, heat inactivated (Gibco Canada Inc.), 1 millimolar (mM) of sodium pyruvate, 100 units/ml of penicillin G, 100 μg/ml of streptomycin and 2 mM of L-glutamine. The incubation was done in a 1 l spinner flask at 37° C. under a mixture of 5% CO2 in air. Cell-containing media (75% of culture volume) was withdrawn semicontinuously at 24-48 h intervals. Fresh media was added each time to replace withdrawn media. Final cell density at harvest was 1-2×10^6 cells/ml.
(c) Preparation of cell extract containing human ribonucleotide reductase (hRR)
The harvested culture media obtained above was subjected to low speed centrifugation. The resulting cell pellet was processed according to the following steps. (All steps were performed at 4° C. unless noted otherwise.) […]
(a) Standard Reaction Mixture […]
The activity of RR was quantitated by following the conversion of radiolabeled cytidine diphosphate to radiolabeled deoxycytidine diphosphate, i.e. (^14 C)CDP to (^14 C)dCDP. The amount of cell extract utilized in the assay was that which gave a linear response between enzyme concentration and CDP conversion (ca. 200 μg of protein per assay).
After addition of the cell extract, the assay mixture was incubated at 37° C. for 30 min. The reaction was stopped by immersing the vessel containing the assay mixture in boiling water for 4 min. Nucleotides in the supernatant were then converted to nucleosides by the addition of excess Crotalus adamenteus snake venom (ca. 20 μl of a preparation of 40 mg/ml of the venom in an aqueous solution of 14 mM tris(hydroxymethyl)aminomethane (pH 8.8) and 46.5 mM MgCl2), followed by incubating the resulting mixture for 60 min at 37° C. The enzymatic reaction was stopped by immersing the vessel containing the reaction mixture in boiling waster for 6 min. Thereafter, the mixture is centrifuged at 10,000 rpm on a clinical centrifuge for 5 min.
The resulting free nucleosides, cytidine (C) and deoxycytidine (dC), in the supernatant were separated by thin layer chromatography on polyethyleneimine-cellulose plates pretreated with boric acid. Elution of 5 μl samples was accomplished using a solution of ethanol/20 mM aqueous ammonium formate (1:1), pH 4.7. Quantitation of radiolabel migrating as C and dC was carried out using radioanalytical imaging equipment (AMBIS Systems Inc., San Diego, CA, USA). substrate conversion was calculated as: [formula]
A unit of ribonucleotide reductase activity is defined as that amount which reduces one nmole of CDP/minute under the conditions described above. Activity was calculated from substrate conversion using the following relationship: [formula]
The conversion factor for the Hela assay was 0.108. Specific activity was expressed as units/mg of protein in the incubation mixture.
The peptides of formula 1 were tested at a minimum of three concentrations. IC50 's were estimated from graphs plotting the results for each peptide, the IC50 being the concentration of the peptide in micromoles (μM) producing 50% of the maximal inhibition of the enzyme.

The mark [1] stands for this setting: inhibition of human RR assay, list after the table, unit μM, read-out: IC50 (shown in parenthesis).
The mark [2] stands for this setting: Hela cell extract, table of Example 4, read-out: IC50.

Read-outs that look alike come from different tables or passages of the source. Non-standard residues stand in square brackets, D forms with d. Residues, ends and D or L forms follow the SMILES beside them. No end group written: not given here. hPhe = N[C@@H](CCc1ccccc1)C(=O)O; NMeD = CN[C@@H](CC(=O)O)C(=O)O; NMeL = CN[C@@H](CC(C)C)C(=O)O; NMeV = CN[C@H](C(=O)O)C(C)C

By IC50 is commonly meant the midpoint of a concentration-inhibition curve. For `CC(=O)N[C@@H](Cc1ccccc1)C(=O)N[C@H](C(=O)N[C@@H](CC(C)C)C(=O)N[C@@H](CC(=O)O)C(=O)N[C@H](C)C(=O)N[C@@H](CC(=O)O)C(=O)N[C@@H](Cc1ccccc1)C(=O)O)[C@@H](C)O` [AcPhe-Thr-Leu-Asp-D-Ala-Asp-Phe-OH] (Ac-FTLD[dA]DF-OH), the IC50 under setting [1] was determined as 460 µM.
For the compound `CC(=O)N[C@@H](Cc1ccccc1)C(=O)N(C)[C@H](C(=O)N[C@@H](CC(C)C)C(=O)N[C@@H](CC(=O)O)C(=O)N[C@@H](C)C(=O)N[C@@H](CC(=O)O)C(=O)N[C@@H](Cc1ccccc1)C(=O)O)C(C)C` [AcPhe-N-Me-Val-Leu-Asp-Ala-Asp-Phe-OH] (Ac-F[NMeV]LDADF-OH), the IC50 under setting [1] amounted to 48 µM.
Same read-out and setting: for “H-PTENSFTLDADF-OH [H-Pro-Thr-Glu-Asn-Ser-Phe-Thr-Leu-Asp-Ala-Asp-Phe-OH]” the value was 41 µM.
Consider “H-VISNSTENSFTLDADF-OH [H--Val--Ile--Ser--Asn--Ser--Thr--Glu--Asn--Ser--Phe--Thr--Leu--Asp--Ala--Asp--Phe--OH]”, for which the IC50 under setting [2] stood at 49 µM.
For the compound `CC(=O)N[C@@H](Cc1ccccc1)C(=O)N[C@H](C(=O)N[C@@H](CC(C)C)C(=O)N[C@@H](CC(=O)O)C(=O)N[C@@H](C)C(=O)N[C@@H](CC(=O)O)C(=O)N[C@@H](CCc1ccccc1)C(=O)O)[C@@H](C)O` [AcPhe-Thr-Leu-Asp-Ala-Asp-homoPhe-OH] (Ac-FTLDAD[hPhe]-OH), under setting [1], the IC50 worked out at 58 µM.
Turning to “Ac-FTLNADF [AcPhe-Thr-Leu-Asn-Ala-Asp-Phe-OH]”, under setting [1], the IC50 turned out to be 31 µM.
“Ac-FTLGADF [AcPhe-Thr-Leu-Gly-Ala-Asp-Phe-OH]”: the IC50 under setting [1] stood at 150 µM.
On the same count and under the same terms, for “Ac-FTLDEDF [AcPhe-Thr-Leu-Asp-Glu-Asp-Phe-OH]” the value was 28 µM; for `CC(=O)N[C@@H](Cc1ccccc1)C(=O)N[C@H](C(=O)N(C)[C@@H](CC(C)C)C(=O)N[C@@H](CC(=O)O)C(=O)N[C@@H](C)C(=O)N[C@@H](CC(=O)O)C(=O)N[C@@H](Cc1ccccc1)C(=O)O)[C@@H](C)O` [AcPhe-Thr-N-Me-Leu-Asp-Ala-Asp-Phe-OH] (Ac-FT[NMeL]DADF-OH), 23 µM; for “Ac-FTLDVDF [AcPhe-Thr-Leu-Asp-Val-Asp-Phe-OH]”, 39 µM.
Take `CC(=O)N[C@@H](Cc1ccccc1)C(=O)N[C@H](C(=O)N[C@@H](CC(C)C)C(=O)N[C@H](CC(=O)O)C(=O)N[C@@H](C)C(=O)N[C@@H](CC(=O)O)C(=O)N[C@@H](Cc1ccccc1)C(=O)O)[C@@H](C)O` [AcPhe-Thr-Leu-D-Asp-Ala-Asp-Phe-OH] (Ac-FTL[dD]ADF-OH): the IC50 under setting [1] is 200 µM.
Take “Ac-TENSFTLDADF [AcThr--Glu--Asn--Ser--Phe--Thr--Leu--Asp--Ala--Asp--Phe--OH]”: the IC50 under setting [2] came out at 83 µM.
As to `CC(=O)N[C@@H](Cc1ccccc1)C(=O)N[C@H](C(=O)N[C@@H](CC(C)C)C(=O)N[C@@H](CC(=O)N(C)C)C(=O)N[C@@H](C)C(=O)N[C@@H](CC(=O)O)C(=O)N[C@@H](Cc1ccccc1)C(=O)O)[C@@H](C)O` [AcPhe-Thr-Leu-Asp(NMe2)-Ala-Asp-Phe-OH] (Ac-FTLD(NMe2)ADF-OH), the IC50 under setting [1] stood at 58 µM.
As to “Ac-NSFTLDADF-OH [Ac--Asn--Ser--Phe--Thr--Leu--Asp--Ala--Asp--Phe--OH]”, the IC50 under setting [2] came to 33 µM.
In the case of `CC(=O)N[C@@H](Cc1ccccc1)C(=O)N[C@H](C(=O)N[C@@H](CC(C)C)C(=O)N[C@@H](CC(=O)O)C(=O)N[C@@H](C)C(=O)N[C@H](CC(=O)O)C(=O)N[C@@H](Cc1ccccc1)C(=O)O)[C@@H](C)O` [AcPhe-Thr-Leu-Asp-Ala-D-Asp-Phe-OH] (Ac-FTLDA[dD]F-OH), the IC50 under setting [1] was found to be 280 µM.
As to “H-NSTENSFTLDADF-OH [H--Asn--Ser--Thr--Glu--Asn--Ser--Phe--Thr--Leu--Asp--Ala--Asp--Phe--OH]”, the IC50 under setting [2] is 62 µM.
For “Ac-FTLFADF [AcPhe-Thr-Leu-Phe-Ala-Asp-Phe-OH]”, the IC50 under setting [1] came out at 73 µM.
For “Ac-FTLDADF [Example 2, AcPhe-Thr-Leu-Asp-Ala-Asp-Phe-OH]”, the IC50 (Hela cell extract, conversion of (14C)CDP to (14C)dCDP, text of Example 3, read-out: IC50) turned out to be 38 µM.
Regarding “Ac-FTLQADF [AcPhe-Thr-Leu-Gln-Ala-Asp-Phe-OH]”, the IC50 under setting [1] was 120 µM.
The same measure, in the same setting: the same measure for “H-SSPTENSFTLDADF-OH [H-Ser-Ser-Pro-Thr-Glu-Asn-Ser-Phe-Thr-Leu-Asp-Ala-Asp-Phe-OH]”: 26 µM.
Turning to “H-TENSFTLDADF-OH [H--Thr--Glu--Asn--Ser--Phe--Thr--Leu--Asp--Ala--Asp--Phe--OH]”, the IC50 under setting [2] stood at 95 µM.
Consider `CC(=O)N[C@@H](Cc1ccccc1)C(=O)N[C@H](C(=O)N[C@@H](CC(C)C)C(=O)N[C@@H](CC(=O)O)C(=O)N[C@@H](C)C(=O)N(C)[C@@H](CC(=O)O)C(=O)N[C@@H](Cc1ccccc1)C(=O)O)[C@@H](C)O` [AcPhe-Thr-Leu-Asp-Ala-N-Me-Asp-Phe-OH] (Ac-FTLDA[NMeD]F-OH), for which the IC50 under setting [1] is 46 µM.
As to “Ac-FTFNEDF [AcPhe-Thr-Phe-Asn-Glu-Asp-Phe-OH]”, the IC50 under setting [1] was determined as 150 µM.
On the same count and under the same terms, the same measure for “H-SPTENSFTLDADF-OH [H-Ser-Pro-Thr-Glu-Asn-Ser-Phe-Thr-Leu-Asp-Ala-Asp-Phe-OH]”: 29 µM.
